Assay results from PubChem BioAssay AID2060503 (Molecular Pharmacology Branch, DTP, NCI, 2025).

Test system: 817829-284-R-J1-PDC complex spheroids, viability
Experiment: Anticancer human tumor 817829-284-R-J1-PDC patient-derived colon adenocarcinoma cell line growth inhibition [GQUAD]
Settings: for IC50: curve of first compound; for viability, T/C: stronger effect = lower value
In short: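 Tumor cells were grown as complex spheroids with HUVEC endothelial cells and mesenchymal stem cells as stroma. G-quadruplex stabilizers were combined with targeted agents over half-log dilutions from near the clinical Cmax, or from 10 microM.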

[1] = second compound 0.0316 µM, first compound 0.0316 µM
[2] = second compound 0.0316 µM, first compound 0.1 µM
[3] = second compound 0.0316 µM, first compound 0.316 µM
[4] = second compound 0.0316 µM, first compound 1 µM
[5] = second compound 0.0316 µM, first compound 3.16 µM
[6] = second compound 0.0316 µM, first compound 10 µM
[7] = second compound 0.1 µM, first compound 0.0316 µM
[8] = second compound 0.1 µM, first compound 0.1 µM
[9] = second compound 0.1 µM, first compound 0.316 µM
[10] = second compound 0.1 µM, first compound 1 µM
[11] = second compound 0.1 µM, first compound 3.16 µM
[12] = second compound 0.1 µM, first compound 10 µM
[13] = second compound 0.316 µM, first compound 0.0316 µM
[14] = second compound 0.316 µM, first compound 0.1 µM
[15] = second compound 0.316 µM, first compound 0.316 µM
[16] = second compound 0.316 µM, first compound 1 µM
[17] = second compound 0.316 µM, first compound 3.16 µM
[18] = second compound 0.316 µM, first compound 10 µM
[19] = second compound 1 µM, first compound 0.0316 µM
[20] = second compound 1 µM, first compound 0.1 µM
[21] = second compound 1 µM, first compound 0.316 µM
[22] = second compound 1 µM, first compound 1 µM
[23] = second compound 1 µM, first compound 3.16 µM
[24] = second compound 1 µM, first compound 10 µM
[25] = second compound 3.16 µM, first compound 0.0316 µM
[26] = second compound 3.16 µM, first compound 0.1 µM
[27] = second compound 3.16 µM, first compound 0.316 µM
[28] = second compound 3.16 µM, first compound 1 µM
[29] = second compound 3.16 µM, first compound 3.16 µM
[30] = second compound 3.16 µM, first compound 10 µM
[31] = second compound 10 µM, first compound 0.0316 µM
[32] = second compound 10 µM, first compound 0.1 µM
[33] = second compound 10 µM, first compound 0.316 µM
[34] = second compound 10 µM, first compound 1 µM
[35] = second compound 10 µM, first compound 3.16 µM
[36] = second compound 10 µM, first compound 10 µM
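Note: spheroids exposed to agents for 7 days before readout.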
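Throughout, for viability, T/C: percent viability relative to DMSO vehicle control taken as 100%.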

Structure (SMILES): O=C(NO)c1cnc(N2CCN(S(=O)(=O)c3ccc4ccccc4c3)CC2)nc1 + Cc1[nH]c2ccc(F)cc2c1-c1nc2c3cccnc3c3ncccc3c2[nH]1
- IC50 (second compound 0.0316 µM): 166 nM
- IC50 (second compound 0.1 µM): 189 nM
- IC50 (second compound 0.316 µM): 195 nM
- IC50 (second compound 1 µM): 186 nM
- IC50 (second compound 3.16 µM): < 31.6 nM
- IC50 (second compound 10 µM): < 31.6 nM
- viability, T/C [1]: 97%
- viability, T/C [2]: 88.9%
- viability, T/C [3]: 0.76%
- viability, T/C [4]: 0.18%
- viability, T/C [5]: 0.1%
- viability, T/C [6]: 0.14%
- viability, T/C [7]: 101%
- viability, T/C [8]: 120%
- viability, T/C [9]: 1.55%
- viability, T/C [10]: 0.16%
- viability, T/C [11]: 0.08%
- viability, T/C [12]: 0.16%
- viability, T/C [13]: 101%
- viability, T/C [14]: 128%
- viability, T/C [15]: 3.53%
- viability, T/C [16]: 0.12%
- viability, T/C [17]: 0.08%
- viability, T/C [18]: 0.15%
- viability, T/C [19]: 118%
- viability, T/C [20]: 106%
- viability, T/C [21]: 1.91%
- viability, T/C [22]: 0.1%
- viability, T/C [23]: 0.08%
- viability, T/C [24]: 0.14%
- viability, T/C [25]: 9.69%
- viability, T/C [26]: 13.6%
- viability, T/C [27]: 0.27%
- viability, T/C [28]: 0.1%
- viability, T/C [29]: 0.08%
- viability, T/C [30]: 0.13%
- viability, T/C [31]: 5.27%
- viability, T/C [32]: 7.46%
- viability, T/C [33]: 0.18%
- viability, T/C [34]: 0.12%
- viability, T/C [35]: 0.17%
- viability, T/C [36]: 0.15%

Structure (SMILES): Cn1ncnc1[C@H]1c2n[nH]c(=O)c3cc(F)cc(c23)N[C@@H]1c1ccc(F)cc1 + Cc1[nH]c2ccc(F)cc2c1-c1nc2c3cccnc3c3ncccc3c2[nH]1
- IC50 (second compound 0.0316 µM): > 316 nM
- IC50 (second compound 0.1 µM): > 316 nM
- IC50 (second compound 0.316 µM): > 316 nM
- IC50 (second compound 1 µM): > 316 nM
- IC50 (second compound 3.16 µM): 148 nM
- IC50 (second compound 10 µM): 79.9 nM
- viability, T/C (second compound 0.0316 µM, first compound 0.000999 µM): 93.8%
- viability, T/C (second compound 0.0316 µM, first compound 0.00316 µM): 88.8%
- viability, T/C (second compound 0.0316 µM, first compound 0.00999 µM): 95.5%
- viability, T/C [1]: 82.2%
- viability, T/C (second compound 0.0316 µM, first compound 0.0999 µM): 96.1%
- viability, T/C [3]: 74.7%
- viability, T/C (second compound 0.1 µM, first compound 0.000999 µM): 93.5%
- viability, T/C (second compound 0.1 µM, first compound 0.00316 µM): 109%
- viability, T/C (second compound 0.1 µM, first compound 0.00999 µM): 94.5%
- viability, T/C [7]: 106%
- viability, T/C (second compound 0.1 µM, first compound 0.0999 µM): 89.2%
- viability, T/C [9]: 76.3%
- viability, T/C (second compound 0.316 µM, first compound 0.000999 µM): 83.9%
- viability, T/C (second compound 0.316 µM, first compound 0.00316 µM): 115%
- viability, T/C (second compound 0.316 µM, first compound 0.00999 µM): 102%
- viability, T/C [13]: 105%
- viability, T/C (second compound 0.316 µM, first compound 0.0999 µM): 86.5%
- viability, T/C [15]: 69.6%
- viability, T/C (second compound 1 µM, first compound 0.000999 µM): 82.6%
- viability, T/C (second compound 1 µM, first compound 0.00316 µM): 108%
- viability, T/C (second compound 1 µM, first compound 0.00999 µM): 116%
- viability, T/C [19]: 103%
- viability, T/C (second compound 1 µM, first compound 0.0999 µM): 80%
- viability, T/C [21]: 68.4%
- viability, T/C (second compound 3.16 µM, first compound 0.000999 µM): 89.1%
- viability, T/C (second compound 3.16 µM, first compound 0.00316 µM): 90.6%
- viability, T/C (second compound 3.16 µM, first compound 0.00999 µM): 87.5%
- viability, T/C [25]: 83.2%
- viability, T/C (second compound 3.16 µM, first compound 0.0999 µM): 54.6%
- viability, T/C [27]: 41.1%
- viability, T/C (second compound 10 µM, first compound 0.000999 µM): 69.3%
- viability, T/C (second compound 10 µM, first compound 0.00316 µM): 73.9%
- viability, T/C (second compound 10 µM, first compound 0.00999 µM): 76.3%
- viability, T/C [31]: 75.8%
- viability, T/C (second compound 10 µM, first compound 0.0999 µM): 44.3%
- viability, T/C [33]: 24.1%

Structure (SMILES): CC(=O)O[C@H]1C(=O)[C@@]2(C)[C@H]([C@H](OC(=O)c3ccccc3)[C@]3(O)C[C@H](OC(=O)[C@H](O)[C@@H](NC(=O)c4ccccc4)c4ccccc4)C(C)=C1C3(C)C)[C@]1(OC(C)=O)CO[C@@H]1C[C@@H]2O + CN(C)c1ccc(Nc2c3ccc(NC(=O)CCN4CCCC4)cc3nc3cc(NC(=O)CCN4CCCC4)ccc23)cc1
- IC50 (second compound 0.0316 µM): < 31.6 nM
- IC50 (second compound 0.1 µM): < 31.6 nM
- IC50 (second compound 0.316 µM): < 31.6 nM
- IC50 (second compound 1 µM): < 31.6 nM
- IC50 (second compound 3.16 µM): < 31.6 nM
- IC50 (second compound 10 µM): < 31.6 nM
- viability, T/C [1]: 10.1%
- viability, T/C [2]: 6.36%
- viability, T/C [3]: 5.48%
- viability, T/C [4]: 3.71%
- viability, T/C [5]: 4.17%
- viability, T/C [6]: 5.39%
- viability, T/C [7]: 9.42%
- viability, T/C [8]: 5.98%
- viability, T/C [9]: 5.19%
- viability, T/C [10]: 3.91%
- viability, T/C [11]: 4.27%
- viability, T/C [12]: 5.02%
- viability, T/C [13]: 8.92%
- viability, T/C [14]: 5.75%
- viability, T/C [15]: 5.24%
- viability, T/C [16]: 2.54%
- viability, T/C [17]: 3.86%
- viability, T/C [18]: 5.06%
- viability, T/C [19]: 7.08%
- viability, T/C [20]: 5.92%
- viability, T/C [21]: 5.25%
- viability, T/C [22]: 3.52%
- viability, T/C [23]: 4.82%
- viability, T/C [24]: 5.09%
- viability, T/C [25]: 6.77%
- viability, T/C [26]: 5.36%
- viability, T/C [27]: 6.1%
- viability, T/C [28]: 5.09%
- viability, T/C [29]: 4.3%
- viability, T/C [30]: 5.84%
- viability, T/C [31]: 10.1%
- viability, T/C [32]: 6.08%
- viability, T/C [33]: 5.52%
- viability, T/C [34]: 4.61%
- viability, T/C [35]: 4.57%
- viability, T/C [36]: 5.48%
